Legend:
[1] = test system: platelet inhibition; parameters: method as in earlier work; conditions: 2 hours after ticagrelor LD; ref 18 20 25 (of the protocol); cited from earlier work
[2] = test system: platelet reactivity; experiment: Platelet reactivity by the VASP assay after ticagrelor loading dose; format: in vivo, human (patients with myocardial infarction); conditions: median [interquartile range]; for time to achieve platelet inhibition below the cut-off value for HPR (VASP): HPR = platelet reactivity index >50%
Method: Consecutive STEMI and NSTEMI patients admitted to the study site (Cardiology Department, Dr. A. Jurasz University Hospital, Bydgoszcz, Poland) were screened for eligibility. After admission to the study centre, confirmation of the initial diagnosis of STEMI or NSTEMI, and provision of a written informed consent to participate in the trial, all study participants received an oral 300 mg LD of plain aspirin (Polpharma SA, Starogard Gdański, Poland) and 180 mg LD ticagrelor in integral tablets with 250 mL tap water. Subsequently, within 15 minutes of ticagrelor LD, all patients underwent coronary angiography followed by PCI as required. During the periprocedural period, all study participants received unfractionated heparin in body weight adjusted dose according to the European Society of Cardiology (ESC) recommendations. Plasma concentrations of ticagrelor and its active metabolite, as well as their antiplatelet effect, were evaluated according to the sampling schedule employed at our centre in previous PK/PD study (pre-treatment, 0.5 h, 1 h, 2 h, 3 h, 4 h, 6 h and 12 h post ticagrelor LD).
Blood samples for PK/PD evaluation were obtained from an 18-gauge cannula inserted into one of the forearm veins. The first 5 mL blood was discarded to avoid spontaneous platelet activation. In each patient specimens were collected at the eight pre-defined time. Detailed description of blood sample processing has been published in the study protocol (S1 File).
Platelet reactivity was assessed using VASP and Multiplate. The VASP assay (Biocytex, Inc., Marseille, France) was used in all study participants, while Multiplate (Roche Diagnostics International Ltd., Rotkreuz, Switzerland) was used in all except in those treated with glycoprotein (GP) IIb/IIIa receptor inhibitors. Pharmacodynamic evaluation was performed according to the manufacturers' instructions. HPR was defined as platelet reactivity index >50% for the VASP assay and AUC >46 units (U) for Multiplate. […]
Table 1 Inclusion and exclusion criteria of the PINPOINT study
Inclusion criteria Exclusion criteria
▸ Provision of informed consent prior to any ▸ Treatment with ticlopidine, clopidogrel, prasugrel or ticagrelor within study-specific procedure 14 days before the study enrolment
▸ Diagnosis of STEMI or NSTEMI ▸ Hypersensitivity to ticagrelor
▸ Men or non-pregnant women ▸ Current treatment with oral anticoagulant or chronic therapy with low-molecular-weight heparin
▸ Provision of informed consent for angiography ▸ Active bleeding […]
▸ History of intracranial haemorrhage
▸ Fibrinolytic treatment during the index event
▸ Recent gastrointestinal bleeding (within 30 days)
▸ History of coagulation disorders
▸ History of moderate or severe hepatic impairment
▸ History of major surgery or severe trauma (within 3 months)
▸ Second or third degree atrioventricular block during screening for […]
▸ Patient requiring dialysis
▸ Manifest infection or inflammatory state
▸ Killip class III or IV during screening for eligibility
▸ Current therapy with strong CYP3A inhibitors or strong CYP3A […]
NSTEMI, non-ST-elevation myocardial infarction; PCI, percutaneous coronary intervention; STEMI, ST-elevation myocardial infarction. […]
Assessment of pharmacodynamics ticagrelor, β-blockers, statins and ACE inhibitors or angio-Platelet VASP assay (Biocytex, Marseille, France) will be tensin II receptor blockers, if not contraindicated. applied to all study participants at all predeﬁned time Morphine will be used at the discretion of the ambulance points. MEA (Roche Diagnostics International, Rotkreuz, staff and the attending physician. The type of implanted Switzerland) will be used at all predeﬁned time points stent and choice of the access site for coronary invasive ( ﬁgure 1) for all study participants with the exception of procedure (radial or femoral ) will be at the discretion of those treated with glycoprotein IIb/IIIa (GP IIb/IIIa) the operator. During the periprocedural period, all study […]

[3] = Pharmacokinetic assessment: plasma concentrations by liquid chromatography tandem mass spectrometry after ticagrelor loading dose; format: in vivo, human (patients with myocardial infarction); conditions: both sexes, human, oral, 180 mg, internal pilot study, first 15 patients with NSTEMI, mean and SD, read-out: AUC(0–6)

CCCSc1nc(N[C@@H]2C[C@H]2c2ccc(F)c(F)c2)c2nnn([C@@H]3C[C@H](OCCO)[C@@H](O)[C@H]3O)c2n1 [ticagrelor]
patients with STEMI with inadequate platelet inhibition [1]: ≤ 60%
Platelet reactivity (VASP) ([2]; NSTEMI, 0.5 h after 180 mg ticagrelor LD): 57.0 [30.2–89.4] %
Platelet reactivity (VASP) ([2]; NSTEMI, 1 h after 180 mg ticagrelor LD): 40.8 [23.7–69.2] %
Platelet reactivity (VASP) ([2]; NSTEMI, 3 h after 180 mg ticagrelor LD): 32.2 [14.7–38.7] %
Platelet reactivity (VASP) ([2]; NSTEMI, 4 h after 180 mg ticagrelor LD): 21.1 [17.5–43.1] %
time to achieve platelet inhibition below the cut-off value for HPR (VASP) ([2]; NSTEMI): 1.0 [0.5–2.0] h
Platelet reactivity (VASP) ([2]; STEMI, 0.5 h after 180 mg ticagrelor LD): 83.1 [74.5–87.8] %
Platelet reactivity (VASP) ([2]; STEMI, 1 h after 180 mg ticagrelor LD): 80.7 [40.4–90.5] %
Platelet reactivity (VASP) ([2]; STEMI, 3 h after 180 mg ticagrelor LD): 45.0 [26.4–80.9] %
Platelet reactivity (VASP) ([2]; STEMI, 4 h after 180 mg ticagrelor LD): 36.5 [22.2–69.7] %
time to achieve platelet inhibition below the cut-off value for HPR (VASP) ([2]; STEMI): 2.5 [1.0–6.0] h
AUC(0-t) [3]: 6410 ± 4080 ng·h/mL

From publication PMC5638327, “Comparison of bioavailability and antiplatelet action of ticagrelor in patients with ST-elevation myocardial infarction and non-ST-elevation myocardial infarction: A prospective, observational, single-centre study” (PLoS ONE, 2017)
